We go through 11 molecules from paper PMC12323621, “Exploring the antimicrobial activity of pantothenamides against uropathogenic Escherichia coli” (Microbiology Spectrum, 2025).

Series [1] relates to UPEC strain CFT073. The series can be described thus: Antimicrobial susceptibility assay, UPEC grown in MOPS-glycerol. The series is classed as cell-based, Escherichia coli. As to conditions: for MIC: Escherichia coli; for MIC / MIC MOPS-glycerol: UPEC CFT073 grown in MOPS-glycerol, 24 h, ± standard error; for activity against UPEC, highest concentration without activity / fold increase in MIC (less potent) compared with 1: MOPS-glycerol. An excerpt: (§1) Unless otherwise noted, all reagents were obtained from commercial sources. BAP, 1, and N5-Pan analogs were synthesized according to previously reported procedures ([31], [53]). Urine was self-collected from adult males and females (not menstruating) between 24 and 57 years old (recruitment was open to donors 18–65 years old), who had not used anti-infectives or cranberry products for at least 7 days prior to collection. The collection protocol was approved by the Johns Hopkins University Institutional Review Boards under IRB study NA_00085130. Informed, written consent was obtained from all participants prior to collection. Urine was collected from at least 7 participants over 14 days, stored at 4°C upon collection, and then pooled, filter-sterilized, and frozen at −20°C. Urine Batch A included five male and three female donors with an average age of 33 years (range: 24–57). Urine Batch B included four male and five female donors with an average age of 26 years (range: 24–43). Samples from two donors (donations made at least 30 days apart) were included in both Batch A and Batch B. Urine Batch C included four male and three female donors with an average age of 27 years (range: 24–36). Urine Batch D included four male and three female donors with an average age of 27 years (range: 25–35). Solid urine agar plates were prepared by supplementing cooled 1.5% (wt/vol) agar with filter-sterilized urine in a 4:1 ratio. Liquid MOPS-glycerol was prepared by adding 10 × 3-(N-morpholino)propanesulfonic acid (MOPS) Buffer (Teknova) to water to a final 1× concentration, 1.32 mM K2HPO4, and 0.4% (vol/vol) glycerol and then filter-sterilizing. Unless otherwise noted, all media were supplemented with freshly prepared 20 µM FeSO4. OD600 analyses were performed on Mettler-Toledo UV5Bio UV/Visible spectrophotometer (Columbus, Ohio, USA). For antimicrobial studies, uropathogenic E. coli strain CFT073 (ATCC: BAA-2503) was provided by Kevin Schwartz from the lab of Rodney Welch. All manipulation of UPEC was conducted in a certified biosafety level 2 (BSL-2) laboratory while using BSL-2-associated safety procedures. Antimicrobial data were collected on a Biotek Epoch 2 microplate reader or a Biotek Synergy Neo 2 microplate reader. For metabolic stability studies, losartan potassium (PHR1602), used as an internal standard, was bought from Millipore Sigma (Burlington, MA). Methanol (A456-4) and acetonitrile (A955-4) were purchased from Fisher Chemical (Pittsburgh, PA). Water (9831-03) was purchased from JT Baker (Philipsburg, NJ). Dimethyl sulfoxide (DMSO)(154938-500mL) was purchased from Sigma Aldrich (St. Louis, MO). Mouse plasma (WT) was purchased from Innovative Research (Novi, MI). Mouse liver microsomes (M1000) were purchased from XenoTech LLC (Kansas City, KS).
(§2) All antimicrobial susceptibility assays were conducted as previously described using an aseptic technique with some modification ([7]). Briefly, 3–5 isolated colonies of CFT073 on LB agar or pooled urine agar were inoculated into 3 mL of liquid MOPS-glycerol medium or pooled urine, respectively, and grown overnight with shaking at 37°C. Saturated cultures were diluted 1:50 in fresh medium and grown to an OD600 of 0.4. These exponential phase cultures were then diluted 1:1,000 into fresh medium to yield the experimental inoculum, which was mixed 1:1 with medium containing 1 or N5-Pan analog at twice the desired final concentration in 96-well plates. The final concentration of bacteria in each well was approximately 10^5 CFU/mL in a final volume of 200 µL. The concentration ranges of compounds evaluated in MOPS-glycerol were: 1 (0–312.5 μM), 2 (0–100 μM), 3 (0–500 μM), 4–5 (0–2,000 μM), 6–7 (0–100 μM), and 8–12 (0-2,000 μM). Analogs 1, 6, and 7 were evaluated over a range of 0–4,000 μM in four batches of pooled human urine. The OD600 was monitored for 24 h (MOPS-glycerol) or 16 h (pooled urine) at 37°C with periodic shaking. […]

The subject of series [2] is UPEC strain CFT073. Kind of series: Antimicrobial susceptibility assay, UPEC grown in pooled human urine. Type of series: cell-based, Escherichia coli.
Source text: as §1, §2

Series [3] in a line: Phase I metabolic stability in mouse liver microsomes. Type of series: in vitro ADME. As to conditions: for remaining at 1 h, 1 µM: mouse, liver microsomes, pH 7.4, 1 h, 1 µM compound, 0.2 mg/mL microsomes. On the procedure:
(§3) Stability studies were conducted in mouse liver microsomes, mouse liver tissue homogenate, and CD1 mouse plasma as previously described with minor modifications ([54][–][56]). Briefly, for Phase I mouse liver microsome stability, reactions were carried out with 200 mM potassium phosphate buffer, pH 7.4, with or without an NADPH-regenerating system (1.3 mM NADPH, 3.3 mM glucose 6-phosphate, 3.3 mM MgCl2, 0.4 U/mL glucose-6-phosphate dehydrogenase, and 50 µM sodium citrate). Reactions, in triplicate, were initiated by the addition of liver microsomes to the incubation mixture (compound final concentration was 1 µM; 0.2 mg/mL microsomes) and incubated at 37°C for the desired incubation time. For liver stability, the tissue homogenate was prepared by washing tissues with diluted 10-fold 0.1 M potassium phosphate buffer and homogenized using a probe sonicator over ice. To evaluate the stability of the drugs over time, each of the crude homogenates was aliquoted to 1 mL and then spiked with a final assay concentration of 10 µM of each drug, followed by incubation in an orbital shaker at 37°C for 1 h (in triplicate). For plasma stability, 1 mL of plasma was spiked with 10 µM of each drug, followed by incubation in an orbital shaker at 37°C for 1 h (in triplicate). Samples from each metabolism study were quenched with 3× volume of acetonitrile containing internal standard (losartan: 0.5 µM) at the desired incubation times. […] Samples were vortex-mixed for 30 s and centrifuged at 10,000 × g for 10 min at 4°C. Compound disappearance over time was monitored using a Dionex ultra-high-performance liquid chromatography system consisting of an analytical pump and an autosampler coupled with Q Exactive Focus orbitrap mass spectrometer (Thermo Fisher Scientific Inc., Waltham MA). […] The mobile phase used was composed of 0.1% formic acid in water and 0.1% formic acid in acetonitrile with gradient elution. The total run time for each analyte was 5 min.
(§4) The mass spectrometer was operated with a HESI ion source in positive ionization mode where compounds were identified in the full scan mode (from m/z 75.00–1125.00) and controlled by the Xcalibur software 4.0.27.13 (Thermo Scientific). Data were acquired using Xcalibur software. Drugs were identified in the full-scan mode (from m/z 75.00 to 1125.00) by comparing t = 0 samples with t = 30 or 60 min samples, and structures were proposed based on the accurate mass information. The percentage of compound remaining for pantothenamides 1, 6, and 7 was determined from the analyte/internal standard (IS) area ratios obtained at t = 30 or 60 min relative to the mean ratios obtained at t = 0 min and calculated using equation 1:
(§5) % Remaining=(Peak area of Analyte/Preak area of ISat t=30 or 60 min/MeanPeak area of Analyte/Peak area of ISat t=0 min)×100

The nature of series [4]: Stability in mouse liver homogenate. Type of series: in vitro ADME. Here is the method: as §3, §4, §5
The nature of series [5]: Stability in mouse plasma. Type of series: in vitro ADME. Here is the method: as §3, §4, §5
The next series concerns serum pantetheinases. The following applies: cited from earlier work.
The subject of the next series is E. coli. More on the design: method as in PMID 29332383. The following applies: cited from earlier work.
A further series relates to UTI. More on the design: method as in PMID 38376151. As to conditions: in vivo ascending UTI prophylaxis model; cited from earlier work.

Where two headings read alike, the source gives them in different places.

The MIC is the lowest concentration found to suppress growth. On to `CC(NC(=O)CCNC(=O)[C@H](O)C(C)(C)CO)c1cccnc1` (some centres unmarked) [compound 11], for which the MIC in the series on UPEC strain CFT073 [1] is over 2000 µM.

In general, share remaining refers to what is left of the initial amount, in per cent. For the molecule `CCCCCC(=O)NCCNC(=O)[C@H](O)C(C)(C)CO` [compound 7], the MIC is 12.5 µM in the series on UPEC strain CFT073 [1]; at least 4000 µM in the series with UPEC strain CFT073 [2] (Escherichia coli, UPEC CFT073, all urine batches A-D, read-out: MIC across four batches of pooled urine); over 4000 µM with UPEC strain CFT073 [2] (UPEC CFT073, urine batch A, read-out: MIC in pooled human urine, urine batch A); 4000 µM in the series on UPEC strain CFT073 [2] (UPEC CFT073, urine batch B, read-out: MIC in pooled human urine, urine batch B). Besides, the “MIC MOPS-glycerol” value in the series with UPEC strain CFT073 [1] was 12.5 ± 0.00 µM. Also, the amount remaining at 1 h, 1 µM was 87% in series [3] (with NADPH, read-out: % remaining in mouse liver microsomes, presence of NADPH) and 87% in series [3] (without NADPH, read-out: % remaining in mouse liver microsomes, absence of NADPH). The “stability in mouse liver microsomes” value in series [3] (n = 3) is recorded as “good stability”. Moreover, the “% remaining in mouse liver homogenate” value in series [4] (1 h, 10% wt/vol homogenate, 10 µM compound, 37°C) is on record as “no degradation”. Moreover, in series [4] (n = 3), the “stability in mouse liver homogenate” value is listed as “good stability”. In addition, the share remaining at 1 h, 10 µM in series [5] (CD1, mouse, plasma, 1 h, 10 µM compound, 37°C) worked out at 93%. Besides, in series [5] (n = 3), the “stability in mouse plasma” value was “good stability”. For the same molecule, the “stability in the presence of serum pantetheinases” value with serum pantetheinases is reported as “stable”.

For the molecule `CN(Cc1cccnc1)C(=O)CCNC(=O)[C@H](O)C(C)(C)CO` [compound 12], in the series on UPEC strain CFT073 [1], the MIC is over 2000 µM.

For `CCCCCN(C)C(=O)CCNC(=O)[C@H](O)C(C)(C)CO` [compound 4, N-methyl N5-Pan], in the series with UPEC strain CFT073 [1], the MIC is over 2000 µM and the “activity against UPEC, highest concentration without activity” value is given as over 2 mM.

`CCCCNC(=O)CCNC(=O)[C@H](O)C(C)(C)CO` [compound 2]: in the series with UPEC strain CFT073 [1], the minimum inhibitory concentration (MIC) came to 4 µM and the “MIC MOPS-glycerol” value came to 4 ± 1 µM.

With `CCCCCCCN(C)C(=O)CCNC(=O)[C@H](O)C(C)(C)CO` [compound 5, N-methyl N7-Pan], in the series with UPEC strain CFT073 [1], the MIC is over 2000 µM and the “activity against UPEC, highest concentration without activity” value is “similarly inactive”. The “activity against E. coli” value in the series on E. coli is “inactive”. Also, the pantetheinase resistance entry in the series with serum pantetheinases is “pantetheinase-resistant”.

Take `CCCCOP(=O)(O)C(C)=O` [BAP, butylacetylphosphonate]: the “protection of mice against UTI” value in the series with UTI is “partially protects”.

`CC(C)(CO)[C@@H](O)C(=O)NCCC(=O)NCc1ccncc1` [compound 10]: the minimal inhibitory concentration (MIC) in the series with UPEC strain CFT073 [1] was over 2000 µM.

For `CCCCCCCNC(=O)CCNC(=O)[C@H](O)C(C)(C)CO` [compound 3], in the series with UPEC strain CFT073 [1], the MIC was 26 µM, the “fold increase in MIC (less potent) compared with 1” value is listed as ~ 10 fold and the “MIC MOPS-glycerol” value is 26 ± 5 µM.

As to `CC(C)(CO)[C@@H](O)C(=O)NCCC(=O)NCc1cccnc1` [compound 9], in the series on UPEC strain CFT073 [1], the MIC worked out at 2000 µM.

As for `CC(C)(CO)[C@@H](O)C(=O)NCCC(=O)NCc1ccccn1` [compound 8], in the series with UPEC strain CFT073 [1], the MIC stood at 68 µM, the “fold increase in MIC (less potent) compared with 1” value is ~ 28 fold and the “MIC MOPS-glycerol” value is listed as 68 ± 32 µM.
